Laboratory results published in patent publication US10745380B2, “Pyridine derivatives and their use in the treatment of cancer and hemoglobinopathies” (CTXT PTY LTD, priority 2016, dated 2020).
Counter-ions that a name gives are not always drawn.

Legend:
[1] = biological target: Full-length PRMT5 enzyme co-expressed with His6-MEP50 (Homo sapiens (Human), UniProt O14744); test: PRMT5 Biochemical Assay; conditions: Transcreener EPIGEN methyltransferase assay, histone H4 derived peptide substrate, 4 hours at 37 degree Celsius
Procedure: Assays PRMT5 Biochemical Assay
Compounds of the invention may be tested for in vitro activity in the following assay: A histone H4 derived peptide is used as substrate (amino acid sequence: […]NH2). Full-length PRMT5 enzyme (NCBI Reference sequence NP_006100.2) was co-expressed with His6-MEP50 in insect cells and purified via Nickel immobilized metal affinity and gel filtration chromatography (“the enzyme”).
The 6 μL reactions are run in Greiner brand black 384-well low volume assay plates. All reactions contained assay buffer (phosphate buffered saline, 0.01% (v/v) Tween-20, 0.01% (w/v) albumin from chicken egg white, 1 mM Dithiothreitol, 1 μM peptide substrate, 1 μM S-Adenosyl methionine, and 15 ng/reaction enzyme, with the enzyme being omitted from negative control reactions. Compounds were added in a volume of 100 nL from dilution series prepared in DMSO, positive and negative control reactions receiving the same volume DMSO without compound. The plates were sealed with adhesive seals and incubated for 4 hours at 37 degree Celsius. Reaction progress was measured using the Transcreener™ EPIGEN methyltransferase assay (BellBrook Labs, Madison, Wis.) as recommended by the manufacturer. To each reaction 2 μL detection mix were added, containing coupling enzymes, fluorescence polarisation tracer, and AMP antibody. […]

TE11 cell line = test: PRMT5 Biomarker Assay (symmetrical dimethylation of arginine, Histone H4 Arginine 3); type: cell-based; conditions: TE11 cells, 72 hours incubation, Di-Methyl Histone H4 Arginine 3 level
Procedure: Compounds of the invention may be tested for potency to inhibit symmetrical dimethylation of arginine in the following assay:
The cell line TE11 was seeded at a density of 6,000 cells per well in 96 well optical quality tissue culture plates in DME medium and 10% foetal bovine serum, and allowed to adhere for 5 hours under standard culture conditions (37 degree Celsius, 5% CO2). Compound dilutions prepared in DMSO were added to the medium, with negative control wells reserved for treatment with DMSO only and maximum inhibition controls receiving a potent PRMT5 inhibitor compound at 1 μM concentration. After incubation for 72 hours, the cells were fixed with 3.7% formaldehyde in PBS for 30 minutes at room temperature, washed with phosphate buffer saline and blocked with Odyssey blocking buffer (LI-COR, Lincoln, Nebr.). Rabbit anti-Di-Methyl Histone H4 Arginine 3 specific antibody (Epigentek) in Odyssey blocking buffer was added and incubated for 14 hours at 4 degree Celsius. […] Plates were washed and read on a PerkinElmer Envision 2103 in fluorescence intensity scanning mode (24 scans across the well area). […] Using a Columbus image analysis pipeline, individual nuclei were located by Hoechst 33342 stain and the methylation level was calculated from the Alexa647-related intensity in the same area. […]

Sequence of Full-length PRMT5 enzyme co-expressed with His6-MEP50 (O14744 whole entry): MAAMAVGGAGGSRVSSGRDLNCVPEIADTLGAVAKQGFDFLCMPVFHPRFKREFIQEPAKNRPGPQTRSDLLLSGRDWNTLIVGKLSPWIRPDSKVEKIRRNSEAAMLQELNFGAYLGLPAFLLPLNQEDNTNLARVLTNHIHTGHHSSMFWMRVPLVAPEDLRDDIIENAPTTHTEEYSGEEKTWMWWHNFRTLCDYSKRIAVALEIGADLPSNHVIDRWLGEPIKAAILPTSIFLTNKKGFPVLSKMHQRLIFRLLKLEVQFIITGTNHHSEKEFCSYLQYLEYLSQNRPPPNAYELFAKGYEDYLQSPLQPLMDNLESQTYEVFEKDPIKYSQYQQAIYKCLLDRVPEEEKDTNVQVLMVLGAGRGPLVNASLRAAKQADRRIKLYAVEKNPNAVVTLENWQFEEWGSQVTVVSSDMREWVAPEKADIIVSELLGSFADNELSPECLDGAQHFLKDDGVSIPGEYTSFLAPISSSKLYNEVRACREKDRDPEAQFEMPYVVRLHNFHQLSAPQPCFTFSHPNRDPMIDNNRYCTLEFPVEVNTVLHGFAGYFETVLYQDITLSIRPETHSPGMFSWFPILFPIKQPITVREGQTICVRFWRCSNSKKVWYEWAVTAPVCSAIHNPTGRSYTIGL
Sequence of Full-length PRMT5 enzyme co-expressed with His6-MEP50 (Q9BQA1 whole entry partner): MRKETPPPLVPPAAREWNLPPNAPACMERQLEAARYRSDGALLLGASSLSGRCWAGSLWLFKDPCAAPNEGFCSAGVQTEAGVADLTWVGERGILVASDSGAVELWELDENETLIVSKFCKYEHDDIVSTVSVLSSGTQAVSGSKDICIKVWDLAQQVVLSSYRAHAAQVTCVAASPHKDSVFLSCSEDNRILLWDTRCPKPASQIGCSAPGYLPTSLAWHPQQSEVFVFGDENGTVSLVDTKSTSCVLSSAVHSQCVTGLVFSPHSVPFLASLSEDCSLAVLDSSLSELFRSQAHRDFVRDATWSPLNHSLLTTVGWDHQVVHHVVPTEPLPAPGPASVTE

`CC(=O)N1CCC(Nc2nccc(C(=O)NC[C@@H](O)CNC3Cc4ccccc4C3)c2Cl)CC1` [Compound 2] showed an IC50 [1] of 0.105 µM and an IC50 (TE11 cell line; Homo sapiens, TE-11) of 0.035 µM.
`CCOc1nc(OCc2ccccc2)ccc1C(=O)NC[C@@H](O)CNC1Cc2ccccc2C1` [Compound 1, (S)-6-(Benzyloxy)-N-(3-((2,3-dihydro-1H-inden-2-yl)amino)-2-hydroxypropyl)-2-ethoxy nicotin amide hydrochloride] showed an IC50 [1] of 0.086 µM and an IC50 (TE11 cell line) of 0.079 µM.
